The values that follow come from patent publication US10150761B2, “Substituted pyridine-piperazinyl analogues as RSV antiviral compounds” (Janssen Sciences Ireland UC, priority 2013, dated 2018).

Where only a bound is given, the exact number is not on record here.

For one data set, the system named is rgRSV224 virus. Nature of the data set: Antiviral activity: rgRSV224 (GFP) replication in HeLa cells. It is filed as cell-based, respiratory syncytial virus (RSV). Particulars: for EC50: human respiratory syncytial virus, HeLa, 72 h, read-out: RSV HELA pEC50, rgRSV224 virus (MOI=1), HeLa cells, GFP expression, three days post-virus exposure (converted). On the procedure:
Black 384-well clear-bottom microtiter plates (Corning, Amsterdam, The Netherlands) were filled via acoustic drop ejection using the echo liquid handler (Labcyte, Sunnyvale, Calif.), 200 nL of compound stock solutions (100% DMSO) were transferred to the assay plates, 9 serial 4-fold dilutions of compound were made, creating per quadrant the same compound concentration. The assay was initiated by adding 10 μL of culture medium to each well (RPMI medium without phenol red, 10% FBS-heat inactivated, 0.04% gentamycin (50 mg/mL). All addition steps are done by using a multidrop dispenser (Thermo Scientific, Erembodegem, Belgium). Next, rgRSV224 virus (MOI=1) diluted in culture medium was added to the plates, rgRSV224 virus is an engineered virus that includes an additional GFP gene (Hallak L K, Spillmann D. Collins P L, Peeples M E.
(§1) Glycosaminoglycan sulfation requirements for respiratory syncytial virus infection; Journal of virology (2000), 74(22), 10508-13) and was in-licensed from the NIH (Bethesda, Md., USA). Finally, 20 μL of a HeLa cell suspension (3,000 cells/well) were plated. Medium, virus- and mock-infected controls were included in each test. The wells contain 0.05% DMSO per volume. Cells were incubated at 37° C. in a 5% CO2 atmosphere. Three days post-virus exposure, viral replication was quantified by measuring GFP expression in the cells by an in house developed MSM laser microscope (Tibotec. Beerse, Belgium). The EC50 was defined as the 50% inhibitory concentration for GFP expression. In parallel, compounds were incubated for three days in a set of white 384-well microtiter plates (Corning) and the cytotoxicity of compounds in HeLa cells was determined by measuring the ATP content of the cells using the ATPlite kit (PerkinElmer, Zaventem, Belgium) according to the manufacturer's instructions. The CC50 was defined as the 50% concentration for cytotoxicity.

A further data set concerns HeLa cells. Nature of the data set: Cytotoxicity in HeLa cells (ATP content, ATPlite kit). It is filed as cell-based. The settings on record: three days incubation. On the procedure:
as §1
Background: In ATP-based viability assays light output follows the ATP content of the culture.

Test in data set [1]: as above
It is filed as cell-based. The settings on record: human, three days incubation, read-out: TOX HELA pCC50 (converted). On the procedure: as §1

With `COc1ccc(-c2ncccc2N2CCN(c3ccncc3)CC2)cc1` [Compound 4], the melting point worked out at 216 °C. The “RSV HELA pEC50” value in the data set on rgRSV224 virus (rgRSV224 virus (MOI=1), HeLa cells, GFP expression, three days post-virus exposure) worked out at 6.38. Besides, the “TOX HELA pCC50” value with HeLa cells was under 4.01.
On to `COc1ccc(-c2ccc(-c3ncccc3N3CCN(c4ccncc4)CC3)cc2)cc1` [Compound 62], for which the melting point amounted to 178 °C. For the same molecule, in the data set with rgRSV224 virus, the EC50 was 0.257 µM. Further, the CC50 at 3 days in data set [1] is 11.5 µM.
As for `Cc1ccc(-c2ccc(-c3ncccc3N3CCN(c4ccncc4)CC3)cc2)o1` [Compound 65], the melting point was determined as 230 °C. In the data set on rgRSV224 virus, the EC50 is 0.191 µM. In data set [1], the CC50 at 3 days was 11 µM.
Taken in the same sequence, the figures for `OC(c1ccccc1)(c1ccccc1)c1ncccc1N1CCN(c2ccncc2)CC1` [Compound 68] were 260 °C, 0.0251 µM and over 25.1 µM.
Taken in the same sequence, the figures for `c1cnc(N2CCN(c3ccncc3)CC2)c(N2CCN(c3ccncc3)CC2)c1` [Compound 69] were 186 °C, 0.933 µM and 40.7 µM.
`CC(C)(O)c1ncccc1N1CCN(c2ccncc2)CC1` [Compound 70]: the melting point stood at 163 °C. For the same molecule, the EC50 in the data set on rgRSV224 virus is 19.1 µM. In data set [1], the CC50 at 3 days was over 100 µM.

As a reminder, the melting point is the temperature of the solid-liquid transition.
